# Measured values: US20020132030A1, “Composition and method for prolonging the useful life of enteral feeding tubes” (priority 1999, published 2002)
# Key:
# Enterobacter cloacae [1] = experiment: Challenge of propyl paraben, sodium benzoate, potassium sorbate singly and in combinations in Isosource HN, Example 4; type: cell-based; conditions: 0.13% propyl paraben, 0.1% sodium benzoate, 0.1% potassium sorbate in Isosource HN
# Description: (§1) The antimicrobials, propyl paraben, sodium benzoate, and potassium sorbate are challenged singly, and in combinations, against 5 organisms.
# (§2) Isosource HN® is packaged and retorted with the allowable FDA limits. Three samples, A, B, or C are prepared, having, respectively, 0.13% propyl paraben (A), 0.1% sodium benzoate (B), and 0.1% potassium sorbate (C). Additional samples D, E, and F are mixtures of A & B, A & C, and A & B & C. Three control samples: G having 0.26% ethanol; H having no preservatives and 1, a blank control are also prepared. A 350-ml aliquot of each retorted product is transferred to a sterile flask and inoculated with one of the designated organisms. A like trial is initiated for each of five organisms, Aspergillus niger, Candida albicans, Enterobacter cloacae, Staphylococcus aureus, and Lactobacillus delbrueckii. These organisms are inoculated, respectively, at 44 organisms/ml product; 2 organisms/ml product; 2 organisms/ml product; 4.1 organisms/ml product, and 30 organisms/ml product. An ethanol control is included for all the tests because it is used as the solvent carrier for paraben. An inoculated control with no inhibitors is also used for comparison. The samples are incubated at the appropriate temperature for optimum growth, and aliquots are pulled for testing at the designated intervals. Results are read and recorded as the population per milliliter of sample tested.
# Candida albicans [2] = experiment: as above; type: cell-based; conditions: 0.13% propyl paraben, 0.1% sodium benzoate, 0.1% potassium sorbate in Isosource HN
# Description: as §1, §2
# [3] = tested on: 6 different organisms: A. niger, B. stearotherm, C. albicans, E. cloacae, L. Leichmanii, and S. aureus; experiment: Challenge study using combinations, overall summary over all organisms, Example 2; type: cell-based; conditions: for synergistic effect: in combination with one of the parabens
# Description: (§3) A challenge study is done on commercially sterile product containing combinations of 4 GRAS antimicrobial agents: methyl paraben, propyl paraben, diacetyl, and natamycin. Ten different matrices are tested against 6 different organisms: A. niger, B. stearotherm, C. albicans, E. cloacae, L. Leichmanii, and S. aureus.
# Enterobacter cloacae [4] = experiment: Paraben challenge in commercially sterile product (Isosource), Example 1; type: cell-based; conditions: 0.1% in Isosource; for Inhibition of Enterobacter cloacae: 24 hours
# Description: (§4) Commercially sterile product (Isosource®) with 0.1% methyl or propyl paraben is prepared. Organisms were challenged in both variations at their optimum growth temperature and room temperature (RT). The populations are determined at different time intervals and compared to a spiked control without the parabens.
# Enterobacter cloacae [5] = experiment: Challenge study using combinations of 4 GRAS antimicrobial agents, Example 2; type: cell-based; conditions: 0.2%
# Description: as §3
# [6] = tested on: Bacillus stearothermophilus; experiment: as above; type: cell-based
# Description: as §3
# Aspergillus niger [7] = experiment: as above; type: cell-based; conditions: for effectiveness against growth of Aspergillus niger: 0.2%
# Description: as §3
# Lactobacillus leichmanni = experiment: as above; type: cell-based; conditions: 0.2%
# Description: as §3
# Candida albicans [8] = experiment: as above; type: cell-based; conditions: 0.2%
# Description: as §3
# Aspergillus niger [9] = experiment: Challenge of propyl paraben, sodium benzoate, potassium sorbate singly and in combinations in Isosource HN, Example 4; type: cell-based
# Description: as §1, §2
# Candida albicans [10] = experiment: Paraben challenge in commercially sterile product (Isosource), Example 1; type: cell-based; conditions: 0.1% in Isosource
# Description: as §4
# 5 organisms = experiment: Challenge of three antimicrobials, overall summary over 5 organisms, Example 4; type: cell-based; conditions: 0.13% propyl paraben, 0.1% sodium benzoate, 0.1% potassium sorbate in Isosource HN
# Description: as §1
# as §2, with “The samples are incubated at the appropriate temperature for optimum growth, and aliquots are pulled for testing at the designated intervals.” left out
# Candida albicans [11] = experiment: Feeding tube lifetime (clogging) test in vitro, Example 3; conditions: 0.1% in formula, feeding tube inoculated with 100 CFU Candida albicans, approximately 30° C.
# Description: Feeding solution is perfused through a feeding tube and maintained at approximately 30° C. during the test, which may last several days or weeks. At the time the test is begun the solution within the feeding tube is inoculated with 100 CFU of Candida albicans. After a few hours of incubation (no flow in the tube), perfusion is started and continued until the tube becomes clogged due to overgrowth of the microorganisms.
# Staphylococus aureus = experiment: Challenge study using combinations of 4 GRAS antimicrobial agents, Example 2; type: cell-based
# Description: as §3
smiles,measurement,setting,value
"C/C=C/C=C/C(=O)[O-].[K+] [Potassium sorbate, potassium sorbate]",Inhibition of Enterobacter cloacae,Enterobacter cloacae [1],most effective agent alone
same,inhibition of Candida albicans,Candida albicans [2],not effective
CC(=O)C(C)=O [diacetyl],effectiveness alone compared with the parabens,[3]; alone,not as effective alone as the parabens
same,synergistic effect,[3],does not contribute any synergistic effect
COC(=O)c1ccc(O)cc1 [methyl paraben],Inhibition of Enterobacter cloacae,Enterobacter cloacae [4]; 35° C.,dramatic
same,difference in population compared to the control,"Enterobacter cloacae [4]; 35° C., 48 hours",0.5 logs
same,Inhibition of Enterobacter cloacae,Enterobacter cloacae [4]; room temperature,slight inhibition
same,growth lower than the propyl paraben sample,"Enterobacter cloacae [4]; room temperature, 48 hours",1.5 logs
same,inhibition of the other organisms,[3]; alone,slightly inhibitory on three others
same,effect on Enterobacter cloacae growth,Enterobacter cloacae [5]; first 24 hours,slows growth slightly
same,effect on Enterobacter cloacae growth,Enterobacter cloacae [5]; otherwise (other than first 24 hours),uninhibited
same,inhibition of Bacillus stearothermophilus growth,[6],greatest amount of inhibition
same,effectiveness alone against Bacillus,"[6]; alone, summary statement",very effective
same,effectiveness against growth of Aspergillus niger,Aspergillus niger [7],most effective
same,effectiveness alone against Aspergillus,"Aspergillus niger [7]; alone, summary statement",very effective
same,effectiveness against Lactobacillus leichmanni,Lactobacillus leichmanni,effective
same,inhibition of Candida albicans,Candida albicans [8],slight inhibitory effect
C[C@@H]1C/C=C/C=C/C=C/C=C/[C@H](O[C@@H]2O[C@H](C)[C@@H](O)[C@H](N)[C@@H]2O)C[C@@H]2O[C@](O)(C[C@@H](O)C[C@H]3O[C@@H]3/C=C/C(=O)O1)C[C@H](O)[C@H]2C(=O)O [natamycin],effectiveness alone compared with the parabens,[3]; alone,not as effective alone as the parabens
same,synergistic effect,[3],does not contribute any synergistic effect
CCCOC(=O)c1ccc(O)cc1 [propyl paraben],Aspergillus niger growth inhibition,"Aspergillus niger [9]; 0.13% propyl paraben in Isosource HN, compared with the other antimicrobials",inhibited most
same,spore growth of Aspergillus niger,Aspergillus niger [9]; 7 days,do not exhibit spore growth
same,lower CFU/ml of Candida albicans than the control,Candida albicans [10]; 7 days,2-3 log cycle
same,difference in Candida albicans CFU/ml from the control,Candida albicans [10]; 14 days,< 2 logs
same,organisms showing good inhibition,[3]; 0.2%,good inhibition of three out of the six organisms
same,overall inhibitory effectiveness among agents,[3]; 0.2%,most effective inhibitory agent overall
same,overall effectiveness over the five challenge organisms,5 organisms,more effective against 4 of the organisms than either of the other 2 antimicrobials alone
same,extension of the time when clogging occurred beyond that attained with no paraben,Candida albicans [11],1 to 2 weeks
same,inhibition against S. aureus,"Staphylococus aureus; 0.2% propyl paraben, summary statement",slight inhibition
same,inhibitory effect on Staphylococus aureus,"Staphylococus aureus; 0.2%, first 24 hours",slight inhibitory effect
same,effectiveness against growth of Aspergillus niger,Aspergillus niger [7],most effective
same,effectiveness against Lactobacillus leichmanni,Lactobacillus leichmanni,effective
same,inhibition of Candida albicans,Candida albicans [8],good inhibition
